Results taken from ChEMBL document CHEMBL1201862, “PubChem BioAssay data set” (2004).
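Step 1: Grow cells in 96-well plates. Step 2: Expose to compound for 48 hours at 5 concentrations. Step 3: Interpolate endpoints linearly; if unreached, use highest concentration. GI50 is the concentration that inhibits growth by half.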 Activity calls are given as the source filed them. No stated cut-off is given here; in the data, active = GI50 up to about 1.1 µM and inactive = higher.

Legend:
Assay in all cases: inhibition of tumour cell growth, NCI panel, 48 h
786-0 = test system: 786-0
ACHN = test system: ACHN
HT-29 = test system: HT-29
Hs-578T = test system: Hs-578T
LOX IMVI = test system: LOX IMVI
M14 = test system: M14
MOLT-4 = test system: MOLT-4
NCI-H23 = test system: NCI-H23
NCI-H460 = test system: NCI-H460
NCI-H522 = test system: NCI-H522
OVCAR-4 = test system: OVCAR-4
OVCAR-5 = test system: OVCAR-5
SF-268 = test system: SF-268
SN12C = test system: SN12C
SNB-75 = test system: SNB-75
T47D = test system: T47D
TK-10 = test system: TK-10
UACC-257 = test system: UACC-257
UACC-62 = test system: UACC-62
UO-31 = test system: UO-31

| Compound | GI50 (786-0) | GI50 (ACHN) | GI50 (HT-29) | GI50 (Hs-578T) | GI50 (LOX IMVI) | GI50 (M14) | GI50 (MOLT-4) | GI50 (NCI-H23) | GI50 (NCI-H460) | GI50 (NCI-H522) | GI50 (OVCAR-4) | GI50 (OVCAR-5) | GI50 (SF-268) | GI50 (SN12C) | GI50 (SNB-75) | GI50 (T47D) | GI50 (TK-10) | GI50 (UACC-257) | GI50 (UACC-62) | GI50 (UO-31) |
| --- | --- | --- | --- | --- | --- | --- | --- | --- | --- | --- | --- | --- | --- | --- | --- | --- | --- | --- | --- | --- |
| CCN(CC)Cc1c(/C=C\c2cc(OC)c(OC)c(OC)c2)ccc(OC)c1O | 3.83 µM (inactive) | 8.59 µM (inactive) | 2.76 µM (inactive) | 2.08 µM (inactive) | 6.24 µM (inactive) | 2.79 µM (inactive) | 15.3 µM (inactive) | 2.97 µM (inactive) | 3.48 µM (inactive) | 1.87 µM (inactive) | 12.3 µM (inactive) | 9.48 µM (inactive) | 5.21 µM (inactive) | 5.3 µM (inactive) | 1.84 µM (inactive) | > 100 µM (inactive) | 9.4 µM (inactive) | 16.8 µM (inactive) | 2.43 µM (inactive) | 6.14 µM (inactive) |
| Clc1cc(OCc2nn3c(Cc4ccccc4)nnc3s2)c(Cl)cc1OCc1nn2c(Cc3ccccc3)nnc2s1 | 33.7 µM (inactive) | 59 µM (inactive) | 76.6 µM (inactive) | 42.4 µM (inactive) | > 100 µM (inactive) | > 100 µM (inactive) | 3.77 µM (inactive) | 23.9 µM (inactive) | > 100 µM (inactive) | > 100 µM (inactive) | 50 µM (inactive) | > 100 µM (inactive) | 43.8 µM (inactive) | > 100 µM (inactive) | 1.32 µM (inactive) | 22.1 µM (inactive) | 29.9 µM (inactive) | > 100 µM (inactive) | > 100 µM (inactive) | 47.8 µM (inactive) |
| Brc1ccc2[nH]cc([C@@H]3CN[C@@H](c4c[nH]c5ccc(Br)cc45)CN3)c2c1 | 3.94 µM (inactive) | 2.33 µM (inactive) | 5.71 µM (inactive) | 6.95 µM (inactive) | 1.66 µM (inactive) | 5.25 µM (inactive) | 1.98 µM (inactive) | 9.95 µM (inactive) | 7.57 µM (inactive) | 2.21 µM (inactive) | 4.76 µM (inactive) | 7.89 µM (inactive) | 10.4 µM (inactive) | 6.04 µM (inactive) | 2.78 µM (inactive) | 8.13 µM (inactive) | 6.92 µM (inactive) | 8.95 µM (inactive) | 7.52 µM (inactive) | 2.42 µM (inactive) |
| O=S1(=O)OCCOS(=O)(=O)C1Cc1cccc2ccccc12 | 21.4 µM (inactive) | 31.5 µM (inactive) | 25.5 µM (inactive) | 29.9 µM (inactive) | 20.5 µM (inactive) | 20.7 µM (inactive) | 23.7 µM (inactive) | 29.9 µM (inactive) | 17 µM (inactive) | 18.9 µM (inactive) | 19.8 µM (inactive) | 24.3 µM (inactive) | 14.5 µM (inactive) | 20.6 µM (inactive) | 29.6 µM (inactive) | 39.4 µM (inactive) | 30.7 µM (inactive) | 14.1 µM (inactive) | 22.2 µM (inactive) | 23.2 µM (inactive) |
| COc1cccc(C2c3cc4c(cc3OC(N3CCCC3)C2C)OCO4)c1O (stereo not given) | 4.89 µM (inactive) | 6.59 µM (inactive) | 3.32 µM (inactive) | 3.04 µM (inactive) | 5.56 µM (inactive) | 3.18 µM (inactive) | 6.7 µM (inactive) | 4.08 µM (inactive) | 4.6 µM (inactive) | 4.44 µM (inactive) | 9.35 µM (inactive) | 11.3 µM (inactive) | 5.97 µM (inactive) | 4.84 µM (inactive) | 2.4 µM (inactive) | 9.95 µM (inactive) | 3.99 µM (inactive) | 4.41 µM (inactive) | 4.33 µM (inactive) | 8.26 µM (inactive) |
| Cc1[nH]c(-c2ccccc2)c2nc(N(C)C)oc(=O)c12 | > 100 µM (inactive) | > 100 µM (inactive) | > 100 µM (inactive) | > 100 µM (inactive) | > 100 µM (inactive) | > 100 µM (inactive) | > 100 µM (inactive) | > 100 µM (inactive) | > 100 µM (inactive) | > 100 µM (inactive) | > 100 µM (inactive) | > 100 µM (inactive) | > 100 µM (inactive) | > 100 µM (inactive) | > 100 µM (inactive) | > 100 µM (inactive) | > 100 µM (inactive) | > 100 µM (inactive) | > 100 µM (inactive) | > 100 µM (inactive) |
| O=c1cc(/C=C/c2ccc(O)c(O)c2)oc(/C=C/c2ccc(O)c(O)c2)c1 | 5.75 µM (inactive) | 4.84 µM (inactive) | 7.91 µM (inactive) | 4.09 µM (inactive) | 3.61 µM (inactive) | 4.52 µM (inactive) | 1.83 µM (inactive) | 4.57 µM (inactive) | 5.02 µM (inactive) | 1.24 µM (inactive) | 3.78 µM (inactive) | 17.2 µM (inactive) | 2.17 µM (inactive) | 4.29 µM (inactive) | 4.41 µM (inactive) | 1.98 µM (inactive) | 7.33 µM (inactive) | 5.31 µM (inactive) | 2.37 µM (inactive) | 4.66 µM (inactive) |
| C=CC(=O)c1ccc2c(c1)OCCOCCOCCOCCOCCO2 | 16.1 µM (inactive) | 17.7 µM (inactive) | 28.9 µM (inactive) | > 100 µM (inactive) | 17.7 µM (inactive) | 20.3 µM (inactive) | 38.1 µM (inactive) | > 44.4 µM (inactive) | > 100 µM (inactive) | 9.48 µM (inactive) | 20.3 µM (inactive) | 33.4 µM (inactive) | > 55.6 µM (inactive) | 23.8 µM (inactive) | > 49.3 µM (inactive) | 29.3 µM (inactive) | 17 µM (inactive) | 19.1 µM (inactive) | 30.3 µM (inactive) | 26.2 µM (inactive) |
| O=C1OCOC2(CCCC2)C1c1ccccc1 (stereo not given) | > 100 µM (inactive) | > 100 µM (inactive) | > 100 µM (inactive) | > 100 µM (inactive) | > 100 µM (inactive) | > 100 µM (inactive) | > 100 µM (inactive) | > 100 µM (inactive) | > 100 µM (inactive) | > 100 µM (inactive) | > 100 µM (inactive) | > 100 µM (inactive) | > 100 µM (inactive) | > 100 µM (inactive) | > 100 µM (inactive) | > 100 µM (inactive) | > 100 µM (inactive) | > 100 µM (inactive) | > 100 µM (inactive) | > 100 µM (inactive) |
| CCCCC(=O)OC[n+]1ccc2c(C)c3[nH]c4ccc(OC)cc4c3c(C)c2c1 | 0.118 µM (active) | 0.0938 µM (active) | 0.243 µM (active) | 1.07 µM (active) | 0.271 µM (active) | 1.04 µM (active) | 0.0396 µM (active) | 0.536 µM (active) | 0.0736 µM (active) | 0.695 µM (active) | 0.796 µM (active) | 1.67 µM (inactive) | 0.344 µM (active) | 0.146 µM (active) | 1.07 µM (active) | 1.03 µM (active) | 2.64 µM (inactive) | 2.13 µM (inactive) | 0.979 µM (active) | 1.04 µM (active) |
| O=Cc1ccc(-c2nccc3c2[nH]c2ccccc23)o1 | > 89.9 µM (inactive) | > 100 µM (inactive) | > 88.1 µM (inactive) | 19.4 µM (inactive) | > 56.2 µM (inactive) | 91.6 µM (inactive) | > 94.8 µM (inactive) | > 100 µM (inactive) | 38.9 µM (inactive) | 64.4 µM (inactive) | 89.5 µM (inactive) | 12.3 µM (inactive) | > 100 µM (inactive) | > 100 µM (inactive) | > 100 µM (inactive) | 47.9 µM (inactive) | 7.36 µM (inactive) | 24.5 µM (inactive) | 26.9 µM (inactive) | > 100 µM (inactive) |
| CC(=O)NC1C(OCc2ccccc2)OC(CO)C(O)C1OC(C)C(=O)NC(C)C(=O)NC(CCC(=O)NCCCCNc1c2ccccc2nc2cccc([N+](=O)[O-])c12)C(N)=O (stereo not given) | 0.0198 µM (active) | 0.0119 µM (active) | 0.00514 µM (active) | 0.171 µM (active) | 0.216 µM (active) | 0.277 µM (active) | 0.148 µM (active) | 0.0457 µM (active) | 0.00445 µM (active) | 0.0705 µM (active) | 0.242 µM (active) | 0.336 µM (active) | 0.0357 µM (active) | 0.0284 µM (active) | 0.18 µM (active) | 0.291 µM (active) | 0.0202 µM (active) | 0.121 µM (active) | 0.0286 µM (active) | 0.0738 µM (active) |
| Cc1ccc(-c2ccc3c(c2)Sc2ccccc2O3)n1C | 0.553 µM (active) | 3.57 µM (inactive) | 0.213 µM (active) | 0.604 µM (active) | 0.524 µM (active) | 0.371 µM (active) | 0.822 µM (active) | 0.908 µM (active) | 0.327 µM (active) | 0.0564 µM (active) | 1.32 µM (inactive) | 0.809 µM (active) | 0.791 µM (active) | 0.306 µM (active) | 0.238 µM (active) | > 100 µM (inactive) | 0.627 µM (active) | 19.5 µM (inactive) | 0.0593 µM (active) | 0.67 µM (active) |
| COC(=O)[C@H]1ON2O[C@H](OC3CCCC[C@@H]3c3ccccc3)C[C@@H]3CC[C@H]1[C@@]32C (stereo not given in full) | > 100 µM (inactive) | > 100 µM (inactive) | 51.8 µM (inactive) | > 100 µM (inactive) | > 100 µM (inactive) | > 100 µM (inactive) | 54.3 µM (inactive) | > 100 µM (inactive) | > 100 µM (inactive) | 45.9 µM (inactive) | > 100 µM (inactive) | > 100 µM (inactive) | > 100 µM (inactive) | 31.6 µM (inactive) | 36.4 µM (inactive) | 46.5 µM (inactive) | > 100 µM (inactive) | > 100 µM (inactive) | > 100 µM (inactive) | 97.3 µM (inactive) |
